Earlier results, collected in patent US10610489B2, “Pharmaceutical composition, pharmaceutical dosage form, process for their preparation, methods for treating and uses thereof” (Boehringer Ingelheim International GmbH, priority 2009, dated 2020).

Test system: HbA1c
Details: metformin on its own, in the diabetic

Structure (SMILES): CN(C)C(=N)N=C(N)N [metformin, dimethyldiguanide]
- average improvement in the HbA1c value: 1.0-1.5%
